Test results from US8816088B2 (Theravance, Inc., priority 2009, dated 2014).
Counter-ions that a name gives are not always drawn.

Test system: MCh-induced bronchoconstriction
Assay: Einthoven assay: bronchoprotection against methacholine (MCh)-induced bronchoconstriction
Type: in vivo
Settings: Rattus norvegicus, inhaled or nasal, 24 h, read-out: Broncho. at 24 h, Bronchoprotective effect present at 24 h, 100 μg by inhalation, 24 h after administration
Protocol: This assay measures the ability of a test compound to provide bronchoprotection against methacholine (MCh)-induced bronchoconstriction in a rat. Male Sprague-Dawley rats (Harlan, Indianapolis, Ind.), weighing between 200 g and 350 g, were used for all studies. Test compound or vehicle (sterile deionized water) were dosed by inhalation (1H) over a 10 min period in a pie shaped inhalation chamber (R+S Molds, San Carlos, Calif.) using 5 mL of dosing solution. […] Rats were dosed with 100 μg of test compound unless otherwise indicated. At predetermined time points, rats were anesthetized with an intraperitoneal (IP) injection of 120 mg/kg inactin (thiobutabarbital). A supplemental dose (40 mg/kg, IP) was administered if the animal responded to physical stimuli (e.g. toe pinch). The surgical site was shaved and a 1-2 cm midline incision of the ventral aspect of the neck was made. The jugular vein was isolated and cannulated with a saline-filled polyethylene catheter (PE-50) to allow IV infusion of MCh. Trachea was dissected free and cannulated with a 14G needle (#NE-014, Small Parts, Miami Lakes, Fla.). After placement of the tracheal cannula, each rat was ventilated using a respirator (Model 683, Harvard Apparatus, Inc., MA) set at a stroke volume of 1 mL/100 g body weight (but not exceeding 2.5 mL volume) and a rate of 90 strokes per minute. A T-connector was placed along the respirator expiratory tubing to allow for measurement of changes in ventilation pressure (VP) using a Biopac transducer that was connected to a Biopac […]) pre-amplifier. Body temperature was maintained at 37° C. using a heating pad. Changes in VP were recorded using the Acknowledge Data Collection Software (Santa Barbara, Calif.). Baseline values were collected for at least 2.5 min. Rats were then challenged with non-cumulative intravenous (IV) infusions of 40 and 80 μg/kg MCh. MCh was infused intravenously for 2.5 minutes from a syringe pump (sp210iw, World Precision Instruments, Inc., Sarasota, Fla.) at a rate of 2 mL/kg/min, with a 2 minute interval between the two doses of MCh. Changes in ventilation pressure (cm H2O) in treated animals are expressed as % inhibition of MCh response relative to control animals. Other bronchoconstrictors, such as histamine and acetylcholine, can be used in place of MCh in this assay. Additionally, guinea pigs can be used instead of rats. […] Inhibition greater than or equal to 30 percent at 24 h is indicative of a long duration of action.

Structure (SMILES) | inhibition in vivo at 0.1 mg [%]
Cc1cc(CNC[C@H](O)c2ccc(O)c3[nH]c(=O)ccc23)ccc1NC(=O)CCCN(C)C(=O)CCN1CCC(OC(=O)Nc2ccccc2-c2ccccc2)CC1 [Compound I-2, Biphenyl-2-ylcarbamic acid 1-(2-{[3-(4-{[(R)-2-hydroxy-2-(8-hydroxy-2-oxo-1,2-dihydroquinolin-5-yl)ethylamino]methyl}-2-methylphenylcarbamoyl)-propyl]methylcarbamoyl}ethyl)piperidin-4-yl ester ditrifluoroacetic acid salt] | < 30
C[C@@H](Cc1cccc(NC(=O)c2cccc(N(C)C(=O)CCN3CCC(OC(=O)Nc4ccccc4-c4ccccc4)CC3)c2)c1)NC[C@H](O)c1ccc(O)c2[nH]c(=O)ccc12 [Compound I-39, ditrifluoroacetic acid salt] | < 30
CC(Cc1cccc(CNC(=O)c2cccc(N(C)C(=O)CCN3CCC(OC(=O)Nc4ccccc4-c4ccccc4)CC3)c2)c1)NC[C@H](O)c1ccc(O)c2[nH]c(=O)ccc12 (stereo partly shown) [Compound I-44, ditrifluoroacetic acid salt] | < 30
Cc1ccc(C(=O)Nc2cccc(CC(C)NC[C@H](O)c3ccc(O)c4[nH]c(=O)ccc34)c2)cc1N(C)C(=O)CCN1CCC(OC(=O)Nc2ccccc2-c2ccccc2)CC1 (stereo partly drawn) [Compound I-37, Biphenyl-2-ylcarbamic acid 1-(2-{[5-(3-{2-[(R)-2-hydroxy-2-(8-hydroxy-2-oxo-1,2-dihydroquinolin-5-yl)-ethylamino]propyl}phenylcarbamoyl)-2-methylphenyl]-methylcarbamoyl}ethyl)piperidin-4-yl ester ditrifluoroacetic acid salt] | < 30
CN(C(=O)CCN1CCC(OC(=O)Nc2ccccc2-c2ccccc2)CC1)c1ccc(CC(=O)NCc2ccc(CCNC[C@H](O)c3ccc(O)c4[nH]c(=O)ccc34)cc2)cc1 [Compound I-64, Biphenyl-2-ylcarbamic acid 1-[2-({4-[(4-{2-[(R)-2-hydroxy-2-(8-hydroxy-2-oxo-1,2-dihydroquinolin-5-yl)-ethylamino]ethyl}benzylcarbamoyl)methyl]phenyl}-methylcarbamoyl)ethyl]piperidin-4-yl ester ditrifluoroacetic acid salt] | < 30
C[C@H](Cc1cccc(NC(=O)c2cccc(N(C)C(=O)CCN3CCC(OC(=O)Nc4ccccc4-c4ccccc4)CC3)c2)c1)NC[C@H](O)c1ccc(O)c2[nH]c(=O)ccc12 [Compound I-38, Biphenyl-2-ylcarbamic acid 1-(2-{[3-(3-{(R)-2-[(R)-2-hydroxy-2-(8-hydroxy-2-oxo-1,2-dihydroquinolin-5-yl)-ethylamino]propyl}phenylcarbamoyl)phenyl]methyl-carbamoyl}ethyl)piperidin-4-yl ester ditrifluoroacetic acid salt] | < 30
Cc1cc(CNC[C@H](O)c2ccc(O)c3[nH]c(=O)ccc23)ccc1NC(=O)c1ccc(C)c(N(C)C(=O)CCN2CCC(OC(=O)Nc3ccccc3-c3ccccc3)CC2)c1 [Compound I-28, ditrifluoroacetic acid salt] | < 30
Cc1ccc(C(=O)NCc2cccc(CC(C)NC[C@H](O)c3ccc(O)c4[nH]c(=O)ccc34)c2)cc1N(C)C(=O)CCN1CCC(OC(=O)Nc2ccccc2-c2ccccc2)CC1 (stereo partly drawn) [Compound I-45, Biphenyl-2-ylcarbamic acid 1-(2-{[5-(3-{2-[(R)-2-hydroxy-2-(8-hydroxy-2-oxo-1,2-dihydroquinolin-5-yl)-ethylamino]propyl}benzylcarbamoyl)-2-methylphenyl]-methylcarbamoyl}ethyl)piperidin-4-yl ester ditrifluoroacetic acid salt] | < 30
COc1cc(CNC[C@H](O)c2ccc(O)c3[nH]c(=O)ccc23)ccc1NC(=O)c1cccc(N(C)C(=O)CCN2CCC(OC(=O)Nc3ccccc3-c3ccccc3)CC2)c1 [Compound I-29, ditrifluoroacetic acid salt] | < 30
CC(Cc1ccc(CC(=O)Nc2cccc(N(C)C(=O)CCN3CCC(OC(=O)Nc4ccccc4-c4ccccc4)CC3)c2)cc1)NC[C@H](O)c1ccc(O)c2[nH]c(=O)ccc12 (stereo partly drawn) [Compound I-53, Biphenyl-2-ylcarbamic acid 1-[2-({3-[2-(4-{2-[(R)-2-hydroxy-2-(8-hydroxy-2-oxo-1,2-dihydroquinolin-5-yl)-ethylamino]propyl}phenyl)acetylamino]phenyl}methyl-carbamoyl)ethyl]piperidin-4-yl ester ditrifluoroacetic acid salt] | < 30
C[C@@H](Cc1cccc(CCNC(=O)c2ccc(N(C)C(=O)CCN3CCC(OC(=O)Nc4ccccc4-c4ccccc4)CC3)cc2)c1)NC[C@H](O)c1ccc(O)c2[nH]c(=O)ccc12 [Compound I-56, Biphenyl-2-ylcarbamic acid 1-[2-({4-[2-(3-{(S)-2-[(R)-2-hydroxy-2-(8-hydroxy-2-oxo-1,2-dihydroquinolin-5-yl)-ethylamino]propyl}phenyl)ethylcarbamoyl]phenyl}-methylcarbamoyl)ethyl]piperidin-4-yl ester ditrifluoroacetic acid salt] | < 30
CN(C(=O)CCN1CCC(OC(=O)Nc2ccccc2-c2ccccc2)CC1)c1cccc(C(=O)Nc2cccc(CCNC[C@H](O)c3ccc(O)c4[nH]c(=O)ccc34)c2)c1 [Compound I-32, ditrifluoroacetic acid salt] | < 30
CC(Cc1ccc(CNC(=O)Cc2ccc(N(C)C(=O)CCN3CCC(OC(=O)Nc4ccccc4-c4ccccc4)CC3)cc2)cc1)NC[C@H](O)c1ccc(O)c2[nH]c(=O)ccc12 (stereo partly drawn) [Compound I-66, Biphenyl-2-ylcarbamic acid 1-[2-({4-[(4-{2-[(R)-2-hydroxy-2-(8-hydroxy-2-oxo-1,2-dihydroquinolin-5-yl)-ethylamino]propyl}benzylcarbamoyl)methyl]phenyl}-methylcarbamoyl)ethyl]piperidin-4-yl ester ditrifluoroacetic acid salt] | < 30
CC(Cc1ccc(CC(=O)NCc2ccc(N(C)C(=O)CCN3CCC(OC(=O)Nc4ccccc4-c4ccccc4)CC3)cc2)cc1)NC[C@H](O)c1ccc(O)c2[nH]c(=O)ccc12 (stereo partly drawn) [Compound I-80, Biphenyl-2-ylcarbamic acid 1-{2-[(4-{[2-(4-{2-[(R)-2-hydroxy-2-(8-hydroxy-2-oxo-1,2-dihydroquinolin-5-yl)-ethylamino]propyl}phenyl)acetylamino]methyl}-phenyl)methylcarbamoyl]ethyl}piperidin-4-yl ester ditrifluoroacetic acid salt] | < 30
Cc1ccc(C(=O)Nc2cccc(CCNC[C@H](O)c3ccc(O)c4[nH]c(=O)ccc34)c2)cc1N(C)C(=O)CCN1CCC(OC(=O)Nc2ccccc2-c2ccccc2)CC1 [Compound I-33, Biphenyl-2-ylcarbamic acid 1-(2-{[5-(3-{2-[(R)-2-hydroxy-2-(8-hydroxy-2-oxo-1,2-dihydroquinolin-5-yl)-ethylamino]ethyl}phenylcarbamoyl)-2-methylphenyl]-methylcarbamoyl}ethyl)piperidin-4-yl ester ditrifluoroacetic acid salt] | < 30
CC(Cc1cccc(CC(=O)Nc2cccc(N(C)C(=O)CCN3CCC(OC(=O)Nc4ccccc4-c4ccccc4)CC3)c2)c1)NC[C@H](O)c1ccc(O)c2[nH]c(=O)ccc12 (stereo partly shown) [Compound I-52, ditrifluoroacetic acid salt] | < 30

Same assay, conditions: inhaled or nasal; rat, 100 μg by inhalation, 24 h after administration; read-out: Broncho. at 24 h; Bronchoprotective effect present at 24 h

Structure (SMILES) | inhibition in vivo at 0.1 mg [%]
Cc1ccc(C(=O)Nc2ccc(CC(C)NC[C@H](O)c3ccc(O)c4[nH]c(=O)ccc34)cc2)cc1N(C)C(=O)CCN1CCC(OC(=O)Nc2ccccc2-c2ccccc2)CC1 (stereo partly drawn) [Compound I-41, Biphenyl-2-ylcarbamic acid 1-(2-{[5-(4-{2-[(R)-2-hydroxy-2-(8-hydroxy-2-oxo-1,2-dihydroquinolin-5-yl)-ethylamino]propyl}phenylcarbamoyl)-2-methylphenyl]-methylcarbamoyl}ethyl)piperidin-4-yl ester] | < 30

Same assay, conditions: rat, 100 μg by inhalation, 24 h after administration

Structure (SMILES) | Broncho. at 24 h; Bronchoprotective effect present at 24 h
CC(Cc1cccc(CCNC(=O)Cc2ccc(N(C)C(=O)CCN3CCC(OC(=O)Nc4ccccc4-c4ccccc4)CC3)cc2)c1)NC[C@H](O)c1ccc(O)c2[nH]c(=O)ccc12 (stereo partly shown) [Compound I-87] | Yes (Bronchoprotective effect present at 24 h, e.g., ≧30% inhibition of the MCh response at 24 h in the rat Einthoven assay (100 μg))
Cc1ccc(C(=O)Nc2ccc(CCNC[C@H](O)c3ccc(O)c4[nH]c(=O)ccc34)cc2)cc1N(C)C(=O)CCN1CCC(OC(=O)Nc2ccccc2-c2ccccc2)CC1 [Compound I-35] | Yes (Bronchoprotective effect present at 24 h, e.g., ≧30% inhibition of the MCh response at 24 h in the rat Einthoven assay (100 μg))
